# According to patent US11168073B2, “3,3-difluoroallylamines or salts thereof and pharmaceutical compositions comprising the same” (YUHAN CORPORATION, priority 2018, dated 2021):
# Where a name gives a salt, the structure may show the parent alone.
# Columns and labels:
# Type in all cases: biochemical
# recombinant human VAP-1 = target: T1, recombinant human VAP-1 (Homo sapiens, UniProt Q16853); test: Activity evaluation on recombinant human VAP-1 (Amplex Red/HRP-coupled hydrogen peroxide assay, benzylamine substrate); conditions: recombinant human VAP-1, benzylamine substrate; read-out: Inhibitory Activity (IC50, nM) human VAP-1
# T1 construct: purchased R&D systems
# T1 sequence (Q16853 1-763): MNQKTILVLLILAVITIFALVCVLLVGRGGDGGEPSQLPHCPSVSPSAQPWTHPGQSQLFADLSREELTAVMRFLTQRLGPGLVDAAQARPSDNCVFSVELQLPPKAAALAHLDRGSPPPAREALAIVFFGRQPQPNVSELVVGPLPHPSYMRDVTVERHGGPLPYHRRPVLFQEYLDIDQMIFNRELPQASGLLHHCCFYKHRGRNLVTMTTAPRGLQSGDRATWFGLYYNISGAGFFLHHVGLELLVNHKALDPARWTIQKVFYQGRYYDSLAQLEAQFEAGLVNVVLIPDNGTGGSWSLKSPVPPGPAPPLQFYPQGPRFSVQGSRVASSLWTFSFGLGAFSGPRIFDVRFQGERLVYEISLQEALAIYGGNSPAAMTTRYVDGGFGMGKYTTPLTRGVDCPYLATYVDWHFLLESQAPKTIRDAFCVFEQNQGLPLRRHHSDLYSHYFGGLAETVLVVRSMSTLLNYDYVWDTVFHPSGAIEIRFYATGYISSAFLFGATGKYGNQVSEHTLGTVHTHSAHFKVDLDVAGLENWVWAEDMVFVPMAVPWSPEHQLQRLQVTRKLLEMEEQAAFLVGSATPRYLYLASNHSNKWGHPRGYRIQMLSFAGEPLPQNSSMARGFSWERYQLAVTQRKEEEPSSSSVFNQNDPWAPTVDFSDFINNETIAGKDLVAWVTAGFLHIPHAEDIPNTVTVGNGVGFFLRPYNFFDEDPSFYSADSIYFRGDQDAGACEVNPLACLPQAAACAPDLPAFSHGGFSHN
# How it was run: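 Recombinant human VAP-1 in 50 mM sodium phosphate pH 7.4 preincubated 30 min at 37 °C with compound (8-point 1:3 series, <1% DMSO), then 1 mM benzylamine, 200 uM Amplex Red, 1 U/mL HRP added. H2O2-derived resorufin fluorescence (ex 544/em 590) followed 1–2 h; IC50 from four-parameter fit of rate inhibition.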
# [1] = target: T2, recombinant human MAO-A (monoamine oxidase-A) (Homo sapiens, UniProt P21397); test: Activity evaluation on recombinant human MAO-A (Amplex Red/HRP-coupled assay, 0.5 mM tyramine substrate); conditions: 0.5 mM tyramine substrate, read-out: Inhibitory Activity (IC50, nM) MAO-A
# T2 construct: purchased Sigma-Aldrich
# T2 sequence (P21397 1-527): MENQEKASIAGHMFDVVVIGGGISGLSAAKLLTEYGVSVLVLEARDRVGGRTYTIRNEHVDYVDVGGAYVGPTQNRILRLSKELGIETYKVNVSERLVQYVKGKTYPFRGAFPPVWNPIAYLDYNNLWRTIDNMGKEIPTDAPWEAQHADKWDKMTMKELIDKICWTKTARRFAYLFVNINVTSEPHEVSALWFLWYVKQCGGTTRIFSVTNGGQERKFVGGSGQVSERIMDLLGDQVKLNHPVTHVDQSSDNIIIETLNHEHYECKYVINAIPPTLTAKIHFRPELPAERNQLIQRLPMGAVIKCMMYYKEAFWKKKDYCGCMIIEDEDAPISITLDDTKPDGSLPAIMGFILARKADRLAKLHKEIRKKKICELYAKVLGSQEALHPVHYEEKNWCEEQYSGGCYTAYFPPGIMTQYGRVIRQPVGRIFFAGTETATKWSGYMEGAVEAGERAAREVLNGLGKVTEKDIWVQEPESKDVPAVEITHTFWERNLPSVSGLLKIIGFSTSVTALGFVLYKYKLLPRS
# How it was run: (§1)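 Enzyme activity was measured as fluorescence rate (ex 544, em 590 nm) from resorufin formed by HRP-coupled H2O2 oxidation of 200 uM Amplex Red. Compounds were first incubated 30 min at 37 °C with enzyme at pH 7.4; substrates were 0.5 mM tyramine (MAO-A), 1 mM benzylamine (MAO-B) and 1 mM putrescine (DAO).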
# [2] = target: T3, recombinant human MAO-B (monoamine oxidase-B) (Homo sapiens, UniProt P27338); test: Activity evaluation on recombinant human MAO-B (Amplex Red/HRP-coupled assay, 1 mM benzylamine substrate); conditions: 1 mM benzylamine substrate, read-out: Inhibitory Activity (IC50, nM) MAO-B
# T3 construct: purchased Sigma-Aldrich
# T3 sequence (P27338 1-520): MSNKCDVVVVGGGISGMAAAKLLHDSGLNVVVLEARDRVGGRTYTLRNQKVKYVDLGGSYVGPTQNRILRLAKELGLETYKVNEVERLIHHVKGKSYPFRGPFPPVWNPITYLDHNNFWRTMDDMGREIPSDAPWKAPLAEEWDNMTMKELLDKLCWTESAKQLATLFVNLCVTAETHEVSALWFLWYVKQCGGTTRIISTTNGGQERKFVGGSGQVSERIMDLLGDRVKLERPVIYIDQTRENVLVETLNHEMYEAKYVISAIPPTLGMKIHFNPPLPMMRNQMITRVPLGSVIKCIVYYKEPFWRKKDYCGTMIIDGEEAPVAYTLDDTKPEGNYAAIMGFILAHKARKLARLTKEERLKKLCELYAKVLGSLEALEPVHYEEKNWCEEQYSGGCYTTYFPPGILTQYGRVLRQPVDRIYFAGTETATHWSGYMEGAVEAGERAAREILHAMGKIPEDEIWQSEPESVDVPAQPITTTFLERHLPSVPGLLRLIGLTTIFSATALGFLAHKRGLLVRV
# How it was run: as §1
# [3] = target: T4, recombinant human DAO (diamine oxidase) (Homo sapiens, UniProt P19801); test: Activity evaluation on recombinant human DAO (Amplex Red/HRP-coupled assay, 1 mM putrescine substrate); conditions: 1 mM putrescine substrate, read-out: Inhibitory Activity (IC50, nM) DAO
# T4 construct: purchased R&D systems
# T4 sequence (P19801 20-751): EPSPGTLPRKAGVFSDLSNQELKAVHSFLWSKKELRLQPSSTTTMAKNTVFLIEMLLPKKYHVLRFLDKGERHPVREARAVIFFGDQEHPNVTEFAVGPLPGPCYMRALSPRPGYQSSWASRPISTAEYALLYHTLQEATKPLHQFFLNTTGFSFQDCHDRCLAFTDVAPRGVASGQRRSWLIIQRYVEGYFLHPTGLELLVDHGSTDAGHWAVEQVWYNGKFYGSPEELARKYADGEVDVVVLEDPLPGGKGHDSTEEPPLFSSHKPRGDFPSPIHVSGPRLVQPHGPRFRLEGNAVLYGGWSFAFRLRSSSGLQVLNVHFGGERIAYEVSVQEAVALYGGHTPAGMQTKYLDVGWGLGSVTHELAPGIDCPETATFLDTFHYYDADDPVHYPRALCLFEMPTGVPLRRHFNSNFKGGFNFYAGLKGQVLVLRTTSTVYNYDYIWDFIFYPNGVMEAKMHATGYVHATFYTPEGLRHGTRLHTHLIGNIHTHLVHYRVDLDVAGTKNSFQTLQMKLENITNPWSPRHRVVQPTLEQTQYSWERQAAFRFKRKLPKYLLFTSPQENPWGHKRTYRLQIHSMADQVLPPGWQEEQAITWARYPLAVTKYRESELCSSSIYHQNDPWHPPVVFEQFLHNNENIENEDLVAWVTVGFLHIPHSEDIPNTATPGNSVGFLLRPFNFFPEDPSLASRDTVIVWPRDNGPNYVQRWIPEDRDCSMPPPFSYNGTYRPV
# How it was run: as §1
IC50 (recombinant human VAP-1) [nM],IC50 [1] [nM],IC50 [2] [nM],IC50 [3] [nM],Compound
2.3,> 100000,> 100000,> 10000,"CN(C)C(=O)c1cccc(-c2ccc(Cn3cnn(CC(CN)=C(F)F)c3=O)s2)c1 [Example 181, 3-[5-[[1-[2-(aminomethyl)-3,3-difluoro-allyl]-5-oxo-1,2,4-triazol-4-yl]methyl]-2-thienyl]-N,N-dimethyl-benzamide trifluoroacetate]"
0.2,> 100000,> 100000,> 100000,"CN1Cc2cc(-c3ccc(Cn4cnn(CC(CN)=C(F)F)c4=O)s3)ccc2NC1=O [Example 182, 6-[5-[[1-[2-(aminomethyl)-3,3-difluoro-allyl]-5-oxo-1,2,4-triazol-4-yl]methyl]-2-thienyl]-3-methyl-1,4-dihydroquinazolin-2-one Trifluoroacetate]"
1.3,> 100000,28000,> 100000,"NCC(Cn1ncn(Cc2ccc(-c3cccc(-c4nc[nH]n4)c3)s2)c1=O)=C(F)F [Example 185, 2-[2-(aminomethyl)-3,3-difluoro-allyl]-4-[[5-[3-(1H-1,2,4-triazol-3-yl)phenyl]-2-thienyl]methyl]-1,2,4-triazol-3-one Trifluoroacetate]"
0.5,> 100000,> 100000,25000,"CN1Cc2cc(-c3csc(Cn4cnn(CC(CN)=C(F)F)c4=O)c3)ccc2NC1=O [Example 186, 6-[5-[[1-[2-(aminomethyl)-3,3-difluoro-allyl]-5-oxo-1,2,4-triazol-4-yl]methyl]-3-thienyl]-3-methyl-1,4-dihydroquinazolin-2-one Trifluoroacetate]"
1.4,> 100000,> 100000,63000,"Cn1cc(-c2csc(Cn3cnn(CC(CN)=C(F)F)c3=O)c2)ccc1=O [Example 190, 5-[5-[[1-[2-(aminomethyl)-3,3-difluoro-allyl]-5-oxo-1,2,4-triazol-4-yl]methyl]-3-thienyl]-1-methyl-pyridin-2-one Trifluoroacetate]"
0.3,> 100000,44000,4200,"NCC(Cn1ncn(Cc2cc(-c3ccc4c(c3)COC(=O)N4)cs2)c1=O)=C(F)F [Example 191, 6-[5-[[1-[2-(aminomethyl)-3,3-difluoro-allyl]-5-oxo-1,2,4-triazol-4-yl]methyl]-3-thienyl]-1,4-dihydro-3,1-benzoxazin-2-one Trifluoroacetate]"
0.4,> 100000,56000,22000,"NCC(Cn1ncn(Cc2cc(-c3ccc4c(c3)CCC(=O)N4)cs2)c1=O)=C(F)F [Example 192, 6-[5-[[1-[2-(aminomethyl)-3,3-difluoro-allyl]-5-oxo-1,2,4-triazol-4-yl]methyl]-3-thienyl]-3,4-dihydro-1H-quinolin-2-one Trifluoroacetate]"

# The next lines start with the compound.
Compound,IC50 (recombinant human VAP-1) [nM],IC50 [1] [nM],IC50 [2] [nM],IC50 [3] [nM]
"NCC(Cn1ncn(Cc2ccc(-c3cnn(C(F)F)c3)s2)c1=O)=C(F)F [Example 183, 2-[2-(aminomethyl)-3,3-difluoro-allyl]-4-[[5-[1-(difluoromethyl)pyrazol-4-yl]-2-thienyl]methyl]-1,2,4-triazol-3-one Trifluoroacetate]",1.4,> 100000,2100,> 100000
"CC(C)n1cc(-c2ccc(Cn3cnn(CC(CN)=C(F)F)c3=O)s2)cn1 [Example 184, 2-[2-(aminomethyl)-3,3-difluoro-allyl]-4-[[5-(1-isopropylpyrazol-4-yl)-2-thienyl]methyl]-1,2,4-triazol-3-one Trifluoroacetate]",2.6,> 100000,26000,72000
"CC(C)n1cc(-c2csc(Cn3cnn(CC(CN)=C(F)F)c3=O)c2)ccc1=O [Example 187, 5-[5-[[1-[2-(aminomethyl)-3,3-difluoro-allyl]-5-oxo-1,2,4-triazol-4-yl]methyl]-3-thienyl]-1-isopropyl-pyridin-2-one Trifluoroacetate]",1.1,> 100000,> 100000,8900
"CC(=O)N1CCN(c2ccc(-c3csc(Cn4cnn(CC(CN)=C(F)F)c4=O)c3)cc2)CC1 [Example 188, 4-[[4-[4-(4-acetylpiperazin-1-yl)phenyl]-2-thienyl]methyl]-2-[2-(aminomethyl)-3,3-difluoro-allyl]-1,2,4-triazol-3-one Trifluoroacetate]",3.4,> 100000,> 100000,7400
"NCC(Cn1ncn(Cc2cc(-c3cc(F)c4[nH]c(=O)ccc4c3)cs2)c1=O)=C(F)F [Example 189, 6-[5-[[1-[2-(aminomethyl)-3,3-difluoro-allyl]-5-oxo-1,2,4-triazol-4-yl]methyl]-3-thienyl]-8-fluoro-1H-quinolin-2-one Trifluoroacetate]",0.5,> 100000,> 100000,23000
"CCn1cc(-c2csc(Cn3cnn(CC(CN)=C(F)F)c3=O)c2)ccc1=O [Example 193, 5-[5-[[1-[2-(aminomethyl)-3,3-difluoro-allyl]-5-oxo-1,2,4-triazol-4-yl]methyl]-3-thienyl]-1-ethyl-pyridin-2-one Trifluoroacetate]",1.3,> 100000,> 100000,8700
